# Assay results from PMC10726465, “Synthesis and Evaluation of Small Molecule Inhibitors of the Androgen Receptor N-Terminal Domain” (ACS Medicinal Chemistry Letters, 2023).
# Key:
# Caco2 cell = test: in vitro; assay type: in vitro ADME
# From the text: (§1) DMPK and physicochemical data were generated by Cyprotex Ltd, Alderley Park, Macclesfield, UK and Pharmaron Inc, Ningbo, China.
# in vitro = in vitro ADME; conditions: human, Caco-2
# From the text: as §1
# AR-v (ARNTD–DBD) = biological target: T1, AR-v (ARNTD–DBD) (Homo sapiens, UniProt P10275); test: AR-v splice variant activity in PC3 cells transfected with ARNTD–DBD expression plasmid and GRE2-luciferase reporter; conditions: PC-3, read-out: inhibition of AR-v activity
# T1 sequence (P10275 1-632 limits assumed): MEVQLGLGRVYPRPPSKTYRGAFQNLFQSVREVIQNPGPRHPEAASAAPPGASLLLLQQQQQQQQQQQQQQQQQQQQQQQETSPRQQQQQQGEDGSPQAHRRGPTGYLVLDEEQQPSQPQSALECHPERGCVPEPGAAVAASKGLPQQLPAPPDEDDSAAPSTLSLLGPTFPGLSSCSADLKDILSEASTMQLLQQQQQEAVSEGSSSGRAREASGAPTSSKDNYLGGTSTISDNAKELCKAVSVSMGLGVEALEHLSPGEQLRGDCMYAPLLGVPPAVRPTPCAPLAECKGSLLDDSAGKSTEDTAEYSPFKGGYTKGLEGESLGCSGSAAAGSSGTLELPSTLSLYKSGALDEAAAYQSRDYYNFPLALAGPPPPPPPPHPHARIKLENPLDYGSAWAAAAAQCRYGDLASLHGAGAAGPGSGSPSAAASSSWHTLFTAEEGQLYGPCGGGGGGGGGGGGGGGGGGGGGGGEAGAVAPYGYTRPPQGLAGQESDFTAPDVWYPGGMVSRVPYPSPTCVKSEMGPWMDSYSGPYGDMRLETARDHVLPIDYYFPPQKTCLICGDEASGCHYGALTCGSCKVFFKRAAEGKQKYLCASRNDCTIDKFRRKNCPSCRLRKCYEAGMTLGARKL
# Method: To this end, AR-v splice variant activity was determined through transfection of PC3 cells with an ARNTD–DBD expression plasmid and a GRE2-luciferase reporter gene (Figure 3).[43]
# CYP 2D6 = CYP 2D6 (Homo sapiens, UniProt P10635); test: CYP450 inhibition (2D6); assay type: in vitro ADME
# CYP 2D6, sequence (P10635 whole entry): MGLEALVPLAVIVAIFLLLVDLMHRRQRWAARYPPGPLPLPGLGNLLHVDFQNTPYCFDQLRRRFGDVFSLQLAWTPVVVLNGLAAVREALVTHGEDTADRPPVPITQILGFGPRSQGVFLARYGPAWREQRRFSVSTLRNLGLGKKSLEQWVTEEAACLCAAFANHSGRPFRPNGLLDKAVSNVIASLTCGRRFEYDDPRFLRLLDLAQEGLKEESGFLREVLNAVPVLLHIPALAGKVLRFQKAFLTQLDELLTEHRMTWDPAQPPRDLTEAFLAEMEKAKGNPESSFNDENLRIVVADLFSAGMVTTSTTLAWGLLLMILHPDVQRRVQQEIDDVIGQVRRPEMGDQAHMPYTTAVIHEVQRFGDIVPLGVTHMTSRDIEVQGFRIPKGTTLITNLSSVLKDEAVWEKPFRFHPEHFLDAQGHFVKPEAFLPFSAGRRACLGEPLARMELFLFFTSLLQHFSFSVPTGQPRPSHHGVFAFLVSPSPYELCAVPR
# [1] = Thermodynamic aqueous solubility; assay type: physicochemical
# Plasma protein binding = assay type: in vitro ADME; conditions: mouse
# [2] = Human liver microsome stability; assay type: in vitro ADME; conditions: human liver microsomes
# From the text: PSA expression (%inhibition) 34%
# Plots of activity against
# values for each small molecule determined.
# Macclesfield, UK and Pharmaron Inc, Ningbo, China.
# androgen receptor (AR) = biological target: T2, androgen receptor (AR) (Homo sapiens, UniProt P10275); conditions: for Lipophilic Ligand Efficiency (LLE): from VCaP GRE2-luciferase IC50 and cLogP; for IC50: read-out: VCaP GRE2-luciferase IC50, VCaP cells, 1 nM DHT, 24 h, 0–30 µM compound; for Ligand Efficiency (LE): from VCaP GRE2-luciferase IC50
# T2 sequence (P10275 1-920): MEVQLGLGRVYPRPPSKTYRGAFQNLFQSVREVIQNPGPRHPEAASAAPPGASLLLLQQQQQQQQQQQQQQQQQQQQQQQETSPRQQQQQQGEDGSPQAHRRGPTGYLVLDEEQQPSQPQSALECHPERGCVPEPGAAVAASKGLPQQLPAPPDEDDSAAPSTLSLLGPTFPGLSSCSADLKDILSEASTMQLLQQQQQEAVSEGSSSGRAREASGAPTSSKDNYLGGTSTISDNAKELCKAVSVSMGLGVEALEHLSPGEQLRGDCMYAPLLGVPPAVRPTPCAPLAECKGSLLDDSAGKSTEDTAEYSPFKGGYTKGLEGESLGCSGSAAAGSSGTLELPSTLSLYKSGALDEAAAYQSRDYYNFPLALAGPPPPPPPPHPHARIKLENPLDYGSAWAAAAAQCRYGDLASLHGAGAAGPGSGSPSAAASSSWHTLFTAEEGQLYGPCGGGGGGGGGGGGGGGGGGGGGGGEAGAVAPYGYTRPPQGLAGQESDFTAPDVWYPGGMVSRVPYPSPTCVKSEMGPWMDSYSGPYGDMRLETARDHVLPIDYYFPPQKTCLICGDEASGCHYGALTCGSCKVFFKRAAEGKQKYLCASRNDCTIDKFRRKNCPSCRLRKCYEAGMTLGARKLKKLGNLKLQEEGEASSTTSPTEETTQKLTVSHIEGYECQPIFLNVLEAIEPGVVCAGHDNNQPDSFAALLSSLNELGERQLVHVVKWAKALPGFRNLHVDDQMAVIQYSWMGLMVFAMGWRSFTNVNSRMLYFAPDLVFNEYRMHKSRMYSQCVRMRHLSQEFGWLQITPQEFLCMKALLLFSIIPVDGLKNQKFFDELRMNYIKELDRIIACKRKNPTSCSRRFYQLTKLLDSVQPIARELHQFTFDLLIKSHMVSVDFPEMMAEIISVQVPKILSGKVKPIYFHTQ
# Method: (§2) VCaP cells, obtained from the American Type Culture Collection, were maintained in Dulbecco’s Modified Eagles Medium (DMEM) supplemented with 10% foetal bovine serum. Cells were maintained at 37°C without antibiotics in a humidified atmosphere
# Transient transfection and Luciferase Activity Assay:
# Cells at 70–80% confluence in 24 well plates, were transferred to DMEM
# 300ng/well of the firefly reporter plasmid, GRE2-TATA-luc using JetPEI (PolyPLUS Transfection) according to the manufacturers’ protocol.
# replaced with fresh DMEM +5% CSS containing either DMSO (vehicle control) or 0– 30 µM small molecules together with 1nM DHT. Twenty four hours later, medium was aspirated, cells were washed with PBS and extracted with Passive Lysis Buffer
# Cell debris was removed by centrifugation at 13,000 xg for 5min and supernatants collected. Luciferase activity was measured in triplicate, using an in-house luciferase assay buffer (13 mM MgSO4 7H2O, 30 mM
# amount of total cellular protein.
# (§3) Inhibition of hormone-dependent expression of prostate specific antigen (PSA):
# (§4) VCaP prostate cells were treated with 1 nM DHT in the absence or presence of inhibitor. After 24 hours cells were harvested and PSA detected by Western blotting and normalised against β-actin.
# Luciferase activity in cells treated with small molecules was determined as a percentage of the untreated control, which was set at 100%. Plots of activity against small molecule concentration (log) were analysed in GraphPad PRISM 5 and IC50 values for each small molecule determined.
# [3] = tested on: prostate-specific antigen (PSA) expression; test: Inhibition of hormone-dependent expression of PSA in VCaP cells (Western blot); assay type: cell-based; conditions: 1 nM DHT, 24 h
# Method: In addition to this, we evaluated hormone-dependent expression of prostate-specific antigen (PSA) in VCaP cells (see the Supporting Information).
# as §2, §3, §4
# [4] = In vivo pharmacokinetic profile in male CD-1 mice; conditions: mouse
# From the text: Encouraged by the promising in vitro profile, compound 16 was advanced, and a pharmacokinetic (PK) profile was obtained in male CD-1 mice (Table 6).
# CYP 3A4 = CYP 3A4 (Homo sapiens, UniProt P08684); test: CYP450 inhibition (3A4); assay type: in vitro ADME
# CYP 3A4, sequence (P08684 whole entry): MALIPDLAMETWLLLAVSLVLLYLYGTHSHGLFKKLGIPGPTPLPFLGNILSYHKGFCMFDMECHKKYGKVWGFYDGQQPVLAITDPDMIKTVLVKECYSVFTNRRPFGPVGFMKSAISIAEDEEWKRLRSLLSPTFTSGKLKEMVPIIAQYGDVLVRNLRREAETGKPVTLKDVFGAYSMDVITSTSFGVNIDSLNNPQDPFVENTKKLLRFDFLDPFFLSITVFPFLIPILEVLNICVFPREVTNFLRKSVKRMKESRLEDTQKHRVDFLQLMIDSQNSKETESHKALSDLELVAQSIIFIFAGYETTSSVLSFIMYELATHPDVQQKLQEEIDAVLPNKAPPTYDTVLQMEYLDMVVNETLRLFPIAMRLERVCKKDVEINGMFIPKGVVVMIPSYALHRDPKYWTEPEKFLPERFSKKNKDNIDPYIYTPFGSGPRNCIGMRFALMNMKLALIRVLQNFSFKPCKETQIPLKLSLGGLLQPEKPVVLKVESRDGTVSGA
# hERG channel = hERG channel (Homo sapiens, UniProt Q12809); test: hERG channel inhibition, Q-patch clamp assay
# hERG channel, sequence (Q12809 whole entry): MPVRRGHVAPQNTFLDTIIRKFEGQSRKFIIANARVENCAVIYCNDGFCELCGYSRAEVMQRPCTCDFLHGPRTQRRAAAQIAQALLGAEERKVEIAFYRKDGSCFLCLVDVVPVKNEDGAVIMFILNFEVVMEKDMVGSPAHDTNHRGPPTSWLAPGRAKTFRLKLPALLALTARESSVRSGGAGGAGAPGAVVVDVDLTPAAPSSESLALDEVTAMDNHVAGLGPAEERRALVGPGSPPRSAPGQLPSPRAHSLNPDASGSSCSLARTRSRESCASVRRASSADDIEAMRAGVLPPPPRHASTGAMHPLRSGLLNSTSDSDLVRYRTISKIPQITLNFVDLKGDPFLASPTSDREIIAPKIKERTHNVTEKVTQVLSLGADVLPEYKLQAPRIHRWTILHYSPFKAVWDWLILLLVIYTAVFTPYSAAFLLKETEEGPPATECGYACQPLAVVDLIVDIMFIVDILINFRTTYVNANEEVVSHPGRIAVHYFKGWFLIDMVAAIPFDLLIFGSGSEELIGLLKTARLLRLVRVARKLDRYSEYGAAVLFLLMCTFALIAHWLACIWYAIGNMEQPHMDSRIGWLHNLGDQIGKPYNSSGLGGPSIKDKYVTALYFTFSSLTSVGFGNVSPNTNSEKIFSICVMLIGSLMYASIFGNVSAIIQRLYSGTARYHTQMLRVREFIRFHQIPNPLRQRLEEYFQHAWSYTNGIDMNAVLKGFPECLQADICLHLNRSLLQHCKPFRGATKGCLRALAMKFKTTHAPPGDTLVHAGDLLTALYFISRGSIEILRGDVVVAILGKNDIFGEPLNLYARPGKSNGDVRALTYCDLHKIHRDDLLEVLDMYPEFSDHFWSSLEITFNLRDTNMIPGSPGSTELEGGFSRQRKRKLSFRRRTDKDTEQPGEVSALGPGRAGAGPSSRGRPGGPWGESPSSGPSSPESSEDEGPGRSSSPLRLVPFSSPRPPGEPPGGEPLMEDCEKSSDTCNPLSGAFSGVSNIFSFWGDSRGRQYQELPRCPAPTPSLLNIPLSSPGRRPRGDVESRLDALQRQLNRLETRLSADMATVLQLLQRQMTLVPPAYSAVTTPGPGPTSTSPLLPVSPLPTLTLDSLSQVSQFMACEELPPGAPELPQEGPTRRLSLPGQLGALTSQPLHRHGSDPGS
smiles,measurement,setting,value
CSc1ccc(C(N)=O)cc1-c1ccc2c(cnn2C)c1 [Compound 16],Caco2 permeability Papp A2B,Caco2 cell; apical to basolateral,3.31 ×10⁻⁶ cm/s
same,Caco2 permeability Papp B2A,Caco2 cell; basolateral to apical,3.94 ×10⁻⁶ cm/s
same,Papp A→B,"in vitro; apical to basolateral, read-out: Caco2 permeability Papp A2B",33.1 ×10⁻⁶ cm/s
same,Papp B→A,"in vitro; basolateral to apical, read-out: Caco2 permeability Papp B2A",39.4 ×10⁻⁶ cm/s
same,efflux ratio,in vitro; read-out: Caco2 efflux ratio,1.2
same,inhibition at 10 µM,AR-v (ARNTD–DBD),35%
same,"CYP450 inhibition, 2D6 isoform (in words)",CYP 2D6,no inhibition
same,IC50,CYP 2D6,> 25000 nM
same,solubility,[1],2.6 µM
same,fraction unbound,Plasma protein binding,0.069
same,microsomal CLint,[2]; read-out: HLM CLint,25.6 µL/min/mg
same,half-life,[2]; read-out: HLM t1/2,54 min
same,increase in potency over initial hit compound 7,androgen receptor (AR); VCaP GRE2-luciferase IC50 ratio,60 fold
same,Lipophilic Ligand Efficiency (LLE),androgen receptor (AR),4.7
same,IC50,androgen receptor (AR),120 nM
same,PSA expression (% inhibition),[3]; 10 μM,34%
same,AUC0–t,[4]; iv 1 mg/kg,131 ng·h/mL
same,AUC0–∞,[4]; iv 1 mg/kg,132 ng·h/mL
same,CL,[4]; iv 1 mg/kg,126 mL min^–1 kg^–1
same,Cmax,[4]; iv 1 mg/kg,432 ng/mL
same,Vss_obs,[4]; iv 1 mg/kg,1.38 L/kg
same,t1/2,[4]; iv 1 mg/kg,17.4 min
same,AUC0–t,[4]; po 10 mg/kg,173 ng·h/mL
same,AUC0–∞,[4]; po 10 mg/kg,208 ng·h/mL
same,Cmax,[4]; po 10 mg/kg,195 ng/mL
same,F (oral bioavailability),[4]; po 10 mg/kg,16%
same,Tmax,[4]; po 10 mg/kg,0.25
same,t1/2,[4]; po 10 mg/kg,240 min
same,"CYP450 inhibition, 3A4 isoform (in words)",CYP 3A4,no inhibition
same,IC50,CYP 3A4,> 25000 nM
same,hERG channel inhibition (in words),hERG channel; Q-patch clamp assay,no hERG channel inhibition
same,IC50,hERG channel; read-out: hERG IC50,> 10000 nM
Cn1ncc2cc(-c3cc(C(N)=O)ccc3NCc3ccccc3)ccc21 [Compound 52],Ligand Efficiency (LE),androgen receptor (AR),0.46
same,Lipophilic Ligand Efficiency (LLE),androgen receptor (AR),6.2
same,IC50,androgen receptor (AR),940 nM
Cn1ncc2cc(-c3cc(C(N)=O)ccc3N3CCOCC3)ccc21 [Compound 53],Ligand Efficiency (LE),androgen receptor (AR),0.41
same,Lipophilic Ligand Efficiency (LLE),androgen receptor (AR),6.1
same,IC50,androgen receptor (AR),> 30000 nM
Cn1ncc2cc(-c3cc(C(N)=O)ccc3NCCN3CCOCC3)ccc21 [Compound 54],Ligand Efficiency (LE),androgen receptor (AR),0.37
same,Lipophilic Ligand Efficiency (LLE),androgen receptor (AR),6.4
same,IC50,androgen receptor (AR),> 30000 nM
Cn1ncc2cc(-c3cc(C(N)=O)ccc3NCCN3CCCCC3)ccc21 [Compound 55],Ligand Efficiency (LE),androgen receptor (AR),0.37
same,Lipophilic Ligand Efficiency (LLE),androgen receptor (AR),5.3
same,IC50,androgen receptor (AR),> 30000 nM
Cn1ncc2cc(-c3cc(C(N)=O)ccc3NCCCN3CCOCC3)ccc21 [Compound 56],Ligand Efficiency (LE),androgen receptor (AR),0.43
same,Lipophilic Ligand Efficiency (LLE),androgen receptor (AR),7.5
same,IC50,androgen receptor (AR),800 nM
CN(C)CCNc1ccc(C(N)=O)cc1-c1ccc2c(cnn2C)c1 [Compound 57],Ligand Efficiency (LE),androgen receptor (AR),0.41
same,Lipophilic Ligand Efficiency (LLE),androgen receptor (AR),6.4
same,IC50,androgen receptor (AR),> 30000 nM
CSc1ccc(C(=O)O)cc1-c1cncnc1 [Compound 58],Ligand Efficiency (LE),androgen receptor (AR),0.80
same,Lipophilic Ligand Efficiency (LLE),androgen receptor (AR),8.2
same,IC50,androgen receptor (AR),120 nM
CSc1ccc(C(=O)N2CCCCC2)cc1-c1cncnc1 [Compound 59],Ligand Efficiency (LE),androgen receptor (AR),0.62
same,Lipophilic Ligand Efficiency (LLE),androgen receptor (AR),6.8
same,IC50,androgen receptor (AR),130 nM
CSc1ccc(C(=O)N2CCOCC2)cc1-c1cncnc1 [Compound 60],Ligand Efficiency (LE),androgen receptor (AR),0.60
same,IC50,androgen receptor (AR),260 nM
"CC(C)(c1ccc(OCC(O)CO)cc1)c1ccc(OCC(O)CCl)cc1 (stereo not drawn) [EPI-001, reference compound]",PSA expression (% inhibition),[3]; 50 μM,19%
